{
  "source": "patent US7629458B2",
  "about": "“Preparation of levofloxacin and hemihydrate thereof” (Teva Pharmaceutical Industries Ltd., priority 2001, dated 2009)",
  "key": {"[1]": {"experiment": "Storage of crystal forms in a closed or open bottle at RT, conversion to hemihydrate by absorption of atmospheric water", "assay_type": "physicochemical", "conditions": "sample kept in an open bottle", "description": "Another embodiment of the invention is a method for preparing a levofloxacin hemihydrate comprising storing one or more forms selected from the group consisting of Forms A, B, C, F, G, and H for an amount of time sufficient for the one or more forms to convert to a levofloxacin hemihydrate by the absorption of atomospheric water. For example, Forms A, B, C, F, G and H were converted to hemihydrate after 7-29 days of storing in a closed bottle at RT. The conversion to hemihydrate was faster (about 24 h) when keeping the sample in an open bottle."}, "[2]": {"conditions": "ordinary relative humidity conditions; cited from earlier work"}, "[3]": {"experiment": "Exposure of wet material to the air at RT covered with paper, polymorph of the sample", "assay_type": "physicochemical", "method": "The wet material was exposed to the air at RT covered with paper (for protection).\nA first portion of the wet material was stirred in 5 v of acetonitrile at 75° C. for 2 h, then filtrated under vacuum. The polymorphism of the wet sample was Hemihydrate. A second portion of the wet material was exposed to the air at RT covered with paper (for protection).\nAfter a few hours the polymorph of the wet samples was Hemihydrate."}},
  "data": [
    {"smiles": "C[C@H]1COc2c(N3CCN(C)CC3)c(F)cc3c(=O)c(C(=O)O)cn1c23", "note": "[Form A, levofloxacin]", "values": [
      {"measurement": "time of conversion to hemihydrate", "setting": "[1]", "value": "about 24 h"}
    ]},
    {"smiles": "C[C@H]1COc2c(N3CCN(C)CC3)c(F)cc3c(=O)c(C(=O)O)cn1c23", "note": "[Form γ, levofloxacin]", "values": [
      {"measurement": "form obtained after rapid adsorption of water vapor", "setting": "[2]", "value": "hemihydrate"}
    ]},
    {"smiles": "C[C@H]1COc2c(N3CCN(C)CC3)c(F)cc3c(=O)c(C(=O)O)cn1c23", "note": "[Form H, levofloxacin]", "values": [
      {"measurement": "polymorph of the wet sample after exposure to the air", "setting": "[3]; after 3, 6, 9 hours (Example 12)", "value": "Form G"},
      {"measurement": "polymorph of the wet sample after exposure to the air", "setting": "[3]; after 24 hours (Example 12)", "value": "hemihydrate polymorph"},
      {"measurement": "polymorph of the wet sample after exposure to the air", "setting": "[3]; after a few hours (Example 13)", "value": "Hemihydrate"}
    ]},
    {"smiles": "C[C@H]1COc2c(N3CCN(C)CC3)c(F)cc3c(=O)c(C(=O)O)cn1c23", "note": "[form α, levofloxacin]", "values": [
      {"measurement": "form obtained after rapid adsorption of water vapor", "setting": "[2]", "value": "monohydrate"}
    ]}
  ]
}
